Measured values: US20240261274A1, “TREATMENT OF MYC-DRIVEN CANCERS WITH GSPT1 DEGRADERS” (MONTE ROSA THERAPEUTICS, INC., priority 2021, published 2024)

Columns and labels:
[1] = system: cells with wildtype (WT) cereblon; test: Viability in cells with wildtype cereblon; type: cell-based
Source text: X-axis axis represents m concentration of compound 8; y-axis represents viability normalized to DMSO.

[2] = target: T1, GSPT1 (Homo sapiens, UniProt P15170+Q96SW2); test: GSPT1 levels in NCI-H1155 tumors by western blotting (compound 210); type: in vivo, mice; parameters: from tissue; host or cells: NCI-H1155 subcutaneous xenograft tumours from BALB/c nude mice; settings: all three dose levels, 6 hours after the third dose
T1 sequence (P15170 whole entry): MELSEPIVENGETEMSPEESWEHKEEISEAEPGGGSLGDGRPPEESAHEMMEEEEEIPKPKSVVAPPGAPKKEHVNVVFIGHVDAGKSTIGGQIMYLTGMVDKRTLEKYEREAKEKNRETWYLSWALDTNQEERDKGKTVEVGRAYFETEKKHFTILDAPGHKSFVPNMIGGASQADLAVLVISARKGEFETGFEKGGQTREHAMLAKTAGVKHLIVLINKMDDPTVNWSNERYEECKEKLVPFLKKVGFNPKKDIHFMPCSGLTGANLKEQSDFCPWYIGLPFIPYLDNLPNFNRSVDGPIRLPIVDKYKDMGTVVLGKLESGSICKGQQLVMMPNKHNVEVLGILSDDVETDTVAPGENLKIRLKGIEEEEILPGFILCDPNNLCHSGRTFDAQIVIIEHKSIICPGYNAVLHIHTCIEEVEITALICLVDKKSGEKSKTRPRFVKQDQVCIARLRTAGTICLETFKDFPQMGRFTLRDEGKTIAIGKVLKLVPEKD
T1 sequence (Q96SW2 whole entry): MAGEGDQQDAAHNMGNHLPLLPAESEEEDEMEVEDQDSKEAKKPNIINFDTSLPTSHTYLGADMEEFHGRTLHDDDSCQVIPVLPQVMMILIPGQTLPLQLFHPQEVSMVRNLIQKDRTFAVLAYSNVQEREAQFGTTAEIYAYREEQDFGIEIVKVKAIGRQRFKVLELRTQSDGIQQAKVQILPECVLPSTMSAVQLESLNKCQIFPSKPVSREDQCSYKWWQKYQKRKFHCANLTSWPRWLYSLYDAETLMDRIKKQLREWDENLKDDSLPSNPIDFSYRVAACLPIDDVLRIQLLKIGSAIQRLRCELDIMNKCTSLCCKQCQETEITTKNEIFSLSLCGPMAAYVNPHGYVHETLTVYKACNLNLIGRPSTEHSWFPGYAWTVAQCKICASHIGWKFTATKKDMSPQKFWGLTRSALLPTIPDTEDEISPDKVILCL
T1 sequence (Q16531 whole entry partner): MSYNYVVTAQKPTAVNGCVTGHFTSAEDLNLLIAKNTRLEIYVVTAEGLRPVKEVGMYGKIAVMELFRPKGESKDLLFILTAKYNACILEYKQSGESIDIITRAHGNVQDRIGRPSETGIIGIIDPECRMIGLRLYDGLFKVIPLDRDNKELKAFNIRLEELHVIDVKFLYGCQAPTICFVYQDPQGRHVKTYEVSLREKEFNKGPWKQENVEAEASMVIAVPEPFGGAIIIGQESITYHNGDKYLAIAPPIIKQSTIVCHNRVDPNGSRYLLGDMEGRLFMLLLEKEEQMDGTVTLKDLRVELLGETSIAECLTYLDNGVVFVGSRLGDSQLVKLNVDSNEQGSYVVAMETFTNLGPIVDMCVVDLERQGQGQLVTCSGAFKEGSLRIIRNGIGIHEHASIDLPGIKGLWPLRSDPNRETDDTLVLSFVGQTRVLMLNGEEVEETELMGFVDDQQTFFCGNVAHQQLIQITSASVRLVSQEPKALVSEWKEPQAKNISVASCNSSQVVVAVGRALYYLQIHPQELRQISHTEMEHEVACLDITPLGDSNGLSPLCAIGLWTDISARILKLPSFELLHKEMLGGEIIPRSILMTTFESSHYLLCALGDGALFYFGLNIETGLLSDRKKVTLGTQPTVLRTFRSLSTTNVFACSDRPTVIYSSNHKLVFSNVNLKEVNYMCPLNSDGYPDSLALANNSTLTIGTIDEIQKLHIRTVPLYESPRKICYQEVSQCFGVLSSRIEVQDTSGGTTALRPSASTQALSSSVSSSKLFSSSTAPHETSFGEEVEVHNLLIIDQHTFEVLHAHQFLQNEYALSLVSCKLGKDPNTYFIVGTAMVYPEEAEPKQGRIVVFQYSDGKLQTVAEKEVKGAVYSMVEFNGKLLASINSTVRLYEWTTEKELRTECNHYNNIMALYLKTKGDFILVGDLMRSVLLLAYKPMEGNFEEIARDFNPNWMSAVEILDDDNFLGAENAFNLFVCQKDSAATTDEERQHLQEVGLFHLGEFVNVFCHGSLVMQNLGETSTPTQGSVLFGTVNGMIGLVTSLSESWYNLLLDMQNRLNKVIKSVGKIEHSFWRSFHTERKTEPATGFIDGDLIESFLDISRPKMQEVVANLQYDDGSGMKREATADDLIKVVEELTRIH
Description: GSPT1 levels in tumors were determined by western blotting 6 hours after the third dose. Western blotting was performed as described previously using GAPDH as loading control.

[3] = target: T1, GSPT1; test: GSPT1 degradation by compound 210 in NSCLC cells; type: cell-based; parameters: endogenous in cells
Description: GSPT1 was degraded by compound 210 after six hours of treatment in high N-Myc NCI-H1155 and ABC-1 cells with a DC50 of 3 nM and 22 nM, respectively (x-axis represents M concentration of compound 210; y-axis represents the viability in %).

[4] = system: MM1 S cells; test: Apoptosis assay, caspase 3/7 activity in MM1 S cells; type: cell-based; settings: 0 to 30 μM, 48 hours
Description: For the same MM cell line, the effect of Compound 345 on apoptosis was evaluated. MM1 S cells were treated with Compound 345 in culture at increasing concentrations ranging from 0 to 30 μM and a control group was treated with lenalidomide, a well-known MM drug. After 48 hours, fold-change caspase 3/7 activity (a marker of apoptosis) was measured and plotted against concentration of Compound 345 compared to lenalidomide as the control. […] For the same MM cell line, the impact of Compound 345 on cell viability was evaluated. MM1 S cells were treated with Compound 345 in culture at increasing concentrations ranging from 0 to 100 μM. Cell viability was measured as a percentage survival after 72 hours.
Apoptosis assay: MM1S cells were sub-cultures as recommended by the providers (ATCC, DSMZ) and incubated at 37° C., 5% CO2. Briefly, cells were seeded in white 96-well plates (100 μL/well) at a density of 50000 cells/well and incubated overnight at 37° C. with 5% CO2. […] Cell apoptosis was assessed using the Caspase-Glo® 3/7 Assay kit as recommended by the manufacturer (Promega, Cat. No. G8091, Lot. No. 0000385738) and measurements were performed on the EnSpire multimode plate reader (Perkin Elmer). EC50 values were determined using Prism8.1.2 (GraphPad) and the asymmetric (five-parameter) equation and least squares fit.

[5] = system: c-Myc; test: c-Myc levels in multiple myeloma and lymphoma cell lines after Compound 345 (western blot); type: cell-based; settings: 24 hr post treatment
Source text: FIGS. 16A, 16B and 16C: Activity of Compound 345 in the c-Myc high multiple myeloma MM1S cell line. […] GAPDH was used as a loading control. […] Lenalidomide was used as a benchmark. 16C: Antiproliferative activity of Compound 345 (as indicated) following treatment with Compound 345 for 72 hr as assessed by Cell Titer Glo assay.
(§1) FIGS. 18A, 18B and 18C: Activity of Compound 345 in the c-Myc high WSU-DLCL2 lymphoma cell line. […] GAPDH was used as a loading control. 18B: Antiproliferative activity of Compound 345 (as indicated) following treatment with Compound 345 for 72 hr as assessed by Cell Titer Glo assay. […] Mice were dosed daily PO with vehicle or Compound 345 at 3, 10 mg/kg (as indicated). Tumor volumes were measured twice weekly. X-axis represents the number of days for treatment duration; y-axis represents mean tumor volume (in mm^3)±SEM. CHOP was used as a positive control for this model. Drug-free vehicle is represented by black circles; CHOP combination represented by light squares; Compound 345 3 mg/kg represented by triangles; Compound 345 10 mg/kg represented by dark squares.
as §1, with “19A, 19B,” for “18A, 18B”, “19C:” for “18C:”, “DOHH-2” for “WSU-DLCL2”, “19B:” for “18B:”, “model.” for “model. Drug-free vehicle is represented by black circles; CHOP combination represented by light squares; Compound 345 3 mg/kg represented by triangles; Compound 345 10 mg/kg represented by dark squares.”
Western blot analysis performed 24 hr post treatment initiation. GAPDH was used as a loading control. GSPT1 DC50 and Dmax as indicated.

[6] = system: N-Myc; test: N-Myc total protein levels in NSCLC lines after Compound 345 (western blot); type: cell-based; settings: NSCLC cancer lines; N-Myc not detectable in NCI-H2023
Description: NCI-H1155 and NCI-H2023 were taken as representative of N-Myc high and low NSCLC. 12A: western blot analysis probing for GSPT1 and N-Myc following treatment with Compound 345 (as indicated). Tubulin was used as a loading control. N-Myc could not be detected by western blotting in the NCI-H2023 line. 12B: Single-sample gene set enrichment analysis (ssGSEA) results for a Myc target gene set at 6 hours (left) and 24 hours (right) after treatment. ssGSEA scores were normalized to DMSOs for each cell line and averaged for three replicates. Error bars denote+/−1 s.d. across replicates.

For `Cc1ccc(NC(=O)NCc2ccc3c(c2)C(=O)N(C2CCC(=O)NC2=O)C3)cc1Cl` (stereo not drawn) [Compound 8], the “induction of death (viability normalized to DMSO)” value [1] was “did induce death”.
With `Cc1ccc(NC(=O)OCc2ccc3c(c2)C(=O)N(C2CCC(=O)NC2=O)C3)cc1Cl` (stereo not drawn) [Compound 210] the “GSPT1 degradation in tumors” value [2] was “Complete degradation of GSPT1”, the “relative levels of GSPT1 versus concentration” value [3] was “degrades GSPT1 in a concentration dependent manner” and the “extent of GSPT1 degradation” value ([3]; NCI-H1155 and ABC-1 cells) was “complete degradation of GSPT1”.
For `O=C1CCC(N2Cc3ccc(COC(=O)Nc4cc(OC(F)(F)F)ccc4F)cc3C2=O)C(=O)N1` (stereo not drawn) [Compound 345, (2-(2,6-dioxopiperidin-3-yl)-3-oxoisoindolin-5-yl)methyl(2-fluoro-5-(trifluoromethoxy)phenyl)carbamate], the “fold-change caspase 3/7 activity (apoptosis)” value [4] was “strong induction of apoptosis”, the c-Myc level ([5]; DOHH-2 lymphoma cell line) was “downregulation of c-Myc” and the c-Myc level ([5]; MM1S multiple myeloma cell line) was “downregulation of c-Myc”. For the same molecule, the c-Myc level ([5]; WSU-DLCL2 lymphoma cell line) was “downregulation of c-Myc” and the “N-Myc total protein levels, timecourse” value [6] was “downregulation of N-Myc total protein levels”.
